From PubChem BioAssay (NCI)
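A five-concentration, 48-hour dose response in 96-well plates underlies each endpoint, interpolated linearly between surrounding concentrations. Definition used: TGI = concentration required for complete inhibition of growth.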

Experiments:
Assay in all cases: NCI-60 cell line screen, 48 h
SW-620 colon = tested on: SW-620 colon
NCI-H522 lung = tested on: NCI-H522 lung
MOLT-4 leukemia = tested on: MOLT-4 leukemia
SF-539 CNS = tested on: SF-539 CNS
DMS 273 small cell lung = tested on: DMS 273 small cell lung
ACHN renal = tested on: ACHN renal
MALME-3M melanoma = tested on: MALME-3M melanoma
UACC-62 melanoma = tested on: UACC-62 melanoma
SR leukemia = tested on: SR leukemia
RXF 393 renal = tested on: RXF 393 renal
OVCAR-8 ovarian = tested on: OVCAR-8 ovarian
M14 melanoma = tested on: M14 melanoma
CAKI-1 renal = tested on: CAKI-1 renal
LOX IMVI melanoma = tested on: LOX IMVI melanoma
SK-OV-3 ovarian = tested on: SK-OV-3 ovarian
786-0 renal = tested on: 786-0 renal
EKVX NSCLC = tested on: EKVX NSCLC
SF-268 CNS = tested on: SF-268 CNS
A549 NSCLC = tested on: A549 NSCLC
DMS 114 small cell lung = tested on: DMS 114 small cell lung
OVCAR-3 ovarian = tested on: OVCAR-3 ovarian
SNB-75 CNS = tested on: SNB-75 CNS
IGROV1 ovarian = tested on: IGROV1 ovarian
HT29 colon = tested on: HT29 colon
OVCAR-5 ovarian = tested on: OVCAR-5 ovarian
UO-31 renal = tested on: UO-31 renal
TK-10 renal = tested on: TK-10 renal
HCC-2998 colon = tested on: HCC-2998 colon
NCI-H460 lung = tested on: NCI-H460 lung
RXF-631 renal = tested on: RXF-631 renal
KM20L2 colon = tested on: KM20L2 colon
DLD-1 colon = tested on: DLD-1 colon
UACC-257 melanoma = tested on: UACC-257 melanoma
K-562 leukemia = tested on: K-562 leukemia
A498 renal = tested on: A498 renal
HCT-15 colon = tested on: HCT-15 colon
HCT-116 colon = tested on: HCT-116 colon
SK-MEL-2 melanoma = tested on: SK-MEL-2 melanoma
NCI-H23 lung = tested on: NCI-H23 lung
HOP-92 NSCLC = tested on: HOP-92 NSCLC
SK-MEL-28 melanoma = tested on: SK-MEL-28 melanoma
SF-295 CNS = tested on: SF-295 CNS
NCI-H226 lung = tested on: NCI-H226 lung
SNB-19 CNS = tested on: SNB-19 CNS
OVCAR-4 ovarian = tested on: OVCAR-4 ovarian
HL-60(TB) leukemia = tested on: HL-60(TB) leukemia
COLO 205 colon = tested on: COLO 205 colon
HOP-62 NSCLC = tested on: HOP-62 NSCLC
SK-MEL-5 melanoma = tested on: SK-MEL-5 melanoma
LXFL 529 NSCLC = tested on: LXFL 529 NSCLC
HOP-18 NSCLC = tested on: HOP-18 NSCLC
CCRF-CEM leukemia = tested on: CCRF-CEM leukemia
M19-MEL melanoma = tested on: M19-MEL melanoma
U251 CNS = tested on: U251 CNS
SN12C renal = tested on: SN12C renal
KM12 colon = tested on: KM12 colon
SNB-78 CNS = tested on: SNB-78 CNS
RPMI-8226 leukemia = tested on: RPMI-8226 leukemia

O=C1CCC(c2nc3cc(Cl)ccc3o2)C(=O)N1 (configuration not stated) was tested. Which TGI (SW-620 colon) did it give?
The TGI was greater than 100 µM.

And the TGI (NCI-H522 lung)?
The TGI was greater than 100 µM.

And the TGI (MOLT-4 leukemia)?
The TGI was greater than 100 µM.

What about the TGI (SF-539 CNS) of the same molecule?
Its TGI is greater than 100 µM.

And the TGI (DMS 273 small cell lung)?
Its TGI is greater than 100 µM.

And the TGI (ACHN renal)?
Its TGI is greater than 100 µM.

And the TGI (MALME-3M melanoma)?
Its TGI is greater than 100 µM.

What about the TGI (UACC-62 melanoma) of the same molecule?
The TGI was greater than 100 µM.

What about the TGI (SR leukemia) of the same molecule?
The TGI was greater than 100 µM.

What about the TGI (RXF 393 renal) of the same molecule?
Its TGI is greater than 100 µM.

What about the TGI (OVCAR-8 ovarian) of the same molecule?
The TGI was greater than 100 µM.

And the TGI (M14 melanoma)?
The TGI was greater than 100 µM.

What about the TGI (CAKI-1 renal) of the same molecule?
The TGI was greater than 100 µM.

And the TGI (LOX IMVI melanoma)?
Its TGI is greater than 100 µM.

What about the TGI (SK-OV-3 ovarian) of the same molecule?
Its TGI is greater than 100 µM.

And the TGI (786-0 renal)?
Its TGI is greater than 100 µM.

And the TGI (EKVX NSCLC)?
Its TGI is greater than 100 µM.

What about the TGI (SF-268 CNS) of the same molecule?
Its TGI is greater than 100 µM.

And the TGI (A549 NSCLC)?
The TGI was greater than 100 µM.

What about the TGI (DMS 114 small cell lung) of the same molecule?
Its TGI is greater than 100 µM.

What about the TGI (OVCAR-3 ovarian) of the same molecule?
The TGI was greater than 100 µM.

And the TGI (SNB-75 CNS)?
Its TGI is greater than 100 µM.

What about the TGI (IGROV1 ovarian) of the same molecule?
The TGI was greater than 100 µM.

What about the TGI (HT29 colon) of the same molecule?
The TGI was greater than 100 µM.

And the TGI (OVCAR-5 ovarian)?
The TGI was greater than 100 µM.

What about the TGI (UO-31 renal) of the same molecule?
The TGI was greater than 100 µM.

And the TGI (TK-10 renal)?
The TGI was greater than 100 µM.

What about the TGI (HCC-2998 colon) of the same molecule?
Its TGI is greater than 100 µM.

What about the TGI (NCI-H460 lung) of the same molecule?
Its TGI is greater than 100 µM.

What about the TGI (RXF-631 renal) of the same molecule?
The TGI was greater than 100 µM.

And the TGI (KM20L2 colon)?
Its TGI is greater than 100 µM.

What about the TGI (DLD-1 colon) of the same molecule?
Its TGI is greater than 100 µM.

And the TGI (UACC-257 melanoma)?
Its TGI is greater than 100 µM.

And the TGI (K-562 leukemia)?
The TGI was greater than 100 µM.

And the TGI (A498 renal)?
Its TGI is greater than 100 µM.

And the TGI (HCT-15 colon)?
Its TGI is greater than 100 µM.

What about the TGI (HCT-116 colon) of the same molecule?
Its TGI is greater than 100 µM.

And the TGI (SK-MEL-2 melanoma)?
The TGI was greater than 100 µM.

What about the TGI (NCI-H23 lung) of the same molecule?
Its TGI is greater than 100 µM.

What about the TGI (HOP-92 NSCLC) of the same molecule?
The TGI was greater than 100 µM.

What about the TGI (SK-MEL-28 melanoma) of the same molecule?
The TGI was greater than 100 µM.

What about the TGI (SF-295 CNS) of the same molecule?
The TGI was greater than 100 µM.

And the TGI (NCI-H226 lung)?
Its TGI is greater than 100 µM.

What about the TGI (SNB-19 CNS) of the same molecule?
Its TGI is greater than 100 µM.

What about the TGI (OVCAR-4 ovarian) of the same molecule?
Its TGI is greater than 100 µM.

What about the TGI (HL-60(TB) leukemia) of the same molecule?
The TGI was greater than 100 µM.

What about the TGI (COLO 205 colon) of the same molecule?
Its TGI is greater than 100 µM.

And the TGI (HOP-62 NSCLC)?
The TGI was greater than 100 µM.

And the TGI (SK-MEL-5 melanoma)?
The TGI was greater than 100 µM.

What about the TGI (LXFL 529 NSCLC) of the same molecule?
The TGI was greater than 100 µM.

What about the TGI (HOP-18 NSCLC) of the same molecule?
Its TGI is greater than 100 µM.

And the TGI (CCRF-CEM leukemia)?
The TGI was greater than 100 µM.

And the TGI (M19-MEL melanoma)?
The TGI was greater than 100 µM.

What about the TGI (U251 CNS) of the same molecule?
The TGI was greater than 100 µM.

What about the TGI (SN12C renal) of the same molecule?
The TGI was greater than 100 µM.

What about the TGI (KM12 colon) of the same molecule?
The TGI was greater than 100 µM.

What about the TGI (SNB-78 CNS) of the same molecule?
The TGI was greater than 100 µM.

CC(=O)/C=C\C1CC2C=CC1C2 (configuration not stated) was tested. Which TGI (SW-620 colon) did it give?
Its TGI is greater than 100 µM.

And the TGI (MOLT-4 leukemia)?
The TGI was 66.1 µM.

And the TGI (SF-539 CNS)?
Its TGI is greater than 100 µM.

And the TGI (DMS 273 small cell lung)?
Its TGI is greater than 100 µM.

What about the TGI (ACHN renal) of the same molecule?
The TGI was greater than 100 µM.

What about the TGI (MALME-3M melanoma) of the same molecule?
Its TGI is greater than 100 µM.

And the TGI (UACC-62 melanoma)?
The TGI was greater than 100 µM.

And the TGI (RXF 393 renal)?
Its TGI is greater than 100 µM.

What about the TGI (OVCAR-8 ovarian) of the same molecule?
The TGI was greater than 100 µM.

And the TGI (M14 melanoma)?
Its TGI is greater than 100 µM.

And the TGI (LOX IMVI melanoma)?
The TGI was 65.4 µM.

And the TGI (SK-OV-3 ovarian)?
Its TGI is greater than 100 µM.

And the TGI (786-0 renal)?
The TGI was greater than 100 µM.

And the TGI (EKVX NSCLC)?
Its TGI is greater than 100 µM.

What about the TGI (SF-268 CNS) of the same molecule?
Its TGI is 76.1 µM.

And the TGI (A549 NSCLC)?
Its TGI is greater than 100 µM.

What about the TGI (DMS 114 small cell lung) of the same molecule?
Its TGI is 82.8 µM.

What about the TGI (OVCAR-3 ovarian) of the same molecule?
The TGI was greater than 100 µM.

What about the TGI (SNB-75 CNS) of the same molecule?
The TGI was 72.2 µM.

And the TGI (IGROV1 ovarian)?
Its TGI is greater than 100 µM.

And the TGI (OVCAR-5 ovarian)?
The TGI was greater than 100 µM.

And the TGI (UO-31 renal)?
The TGI was greater than 100 µM.

And the TGI (TK-10 renal)?
Its TGI is greater than 100 µM.

And the TGI (HCC-2998 colon)?
Its TGI is 73.2 µM.

And the TGI (RPMI-8226 leukemia)?
Its TGI is greater than 100 µM.

What about the TGI (NCI-H460 lung) of the same molecule?
The TGI was greater than 100 µM.

What about the TGI (RXF-631 renal) of the same molecule?
The TGI was greater than 100 µM.

What about the TGI (KM20L2 colon) of the same molecule?
Its TGI is greater than 100 µM.

And the TGI (DLD-1 colon)?
The TGI was greater than 100 µM.

What about the TGI (K-562 leukemia) of the same molecule?
Its TGI is greater than 100 µM.

What about the TGI (HCT-15 colon) of the same molecule?
The TGI was greater than 100 µM.

And the TGI (HCT-116 colon)?
The TGI was 54.5 µM.

What about the TGI (SK-MEL-2 melanoma) of the same molecule?
Its TGI is greater than 100 µM.

What about the TGI (NCI-H23 lung) of the same molecule?
The TGI was greater than 100 µM.

What about the TGI (HOP-92 NSCLC) of the same molecule?
Its TGI is 79.9 µM.

And the TGI (SF-295 CNS)?
Its TGI is greater than 100 µM.

And the TGI (SNB-19 CNS)?
Its TGI is greater than 100 µM.

What about the TGI (OVCAR-4 ovarian) of the same molecule?
The TGI was greater than 100 µM.

What about the TGI (HL-60(TB) leukemia) of the same molecule?
Its TGI is 99.7 µM.

What about the TGI (COLO 205 colon) of the same molecule?
Its TGI is greater than 100 µM.

And the TGI (HOP-62 NSCLC)?
Its TGI is greater than 100 µM.

And the TGI (SK-MEL-5 melanoma)?
Its TGI is greater than 100 µM.

What about the TGI (LXFL 529 NSCLC) of the same molecule?
Its TGI is greater than 100 µM.

And the TGI (HOP-18 NSCLC)?
Its TGI is greater than 100 µM.

What about the TGI (CCRF-CEM leukemia) of the same molecule?
The TGI was 70.3 µM.

What about the TGI (M19-MEL melanoma) of the same molecule?
The TGI was greater than 100 µM.

And the TGI (U251 CNS)?
Its TGI is greater than 100 µM.

What about the TGI (SN12C renal) of the same molecule?
Its TGI is greater than 100 µM.

And the TGI (KM12 colon)?
The TGI was greater than 100 µM.

And the TGI (SNB-78 CNS)?
The TGI was 73.5 µM.
